Source: patent US20160081947A1, “SELECTIVE LSD1 AND DUAL LSD1/MAO-B INHIBITORS FOR MODULATING DISEASES ASSOCIATED WITH ALTERATIONS IN PROTEIN CONFORMATION” (ORYZON GENOMICS S.A., priority 2010, published 2016)
“Also recorded” adds a separate entry of the source. Like-named read-outs stand apart in the source and are kept apart here.

Experiments:
[1] = tested on: SH-SY5Y cells; experiment: Western blot for dimethylated H3K4 in SH-SY5Y cells; assay type: cell-based
From the text: B-actin was used as a loading control.

[2] = tested on: R6/2 mice; experiment: Two-choice swim test in R6/2 mouse; assay type: in vivo; conditions: transgenic R6/2 mice
From the text: Eighty male and female R6/2 mice and 20 male and female wild-type littermate control mice (F1 generation) will be bred by Cerebricon at FELASA compliant National Animal Facility Center Kuopio by mating (F0 generation) WT males (C57BL6CBA F1 hybrid, JAX) with ovarian transferred (01) TG females (JAX). Breeder animals receive igloos instead of play tunnels, nylabone and cotton nestlets and use Purina diet 5008. Upon weaning, pups receive Purina diet 5001.
Sertraline will be made fresh daily by diluting to 1% TWEEN® 80 in ddH2°.
Two-Choice Swim Test: The two-choice swim test is performed at age week 9. The swim tank (dimensions: 70 cm×30 cm×30 cm) is filled with water (26±1° C.) no higher than 1 cm from the top of a hidden escape platform. The hidden cylindrical platform (diameter, 6.0 cm, height,˜9 cm) is placed either at right or left end of the tank. During acquisition of the task, each mouse is given six training trials per day to swim towards or away from the right end (counterbalanced across subjects) to escape onto the platform. […] A choice is recorded when a mouse moves towards one end and swims beyond 20 cm from the center. If the mouse fails to make a choice within about 15 minutes a “no choice” is recorded. […] In all trials, choice, latency and “no choice” are recorded.

[3] = Body weight loss in chronically treated R6/2 mouse; assay type: in vivo; conditions: R6/2 mice, 5 mg/kg or 10 mg/kg IP per day, chronic
From the text: More easily measured is body weight loss.
In the R6/2 mouse study described above the weight of the animals were monitored to determine if the LSD1 or LSD1/MAO-B dual inhibitor cause weight loss in chronically treated animals. […] .

[4] = tested on: mouse haloperidol model; experiment: Mouse haloperidol model of catalepsy; assay type: in vivo; conditions: control caffeine
From the text: See, e.g., East et al. (2010), Bioorg. Med Chem. Lett., August 15; 20(16):4901-5, Epub 2010 Jun. 25.

[5] = tested on: R6/2 mice; experiment: Longevity / survival study in R6/2 mouse; conditions: for survival versus vehicle and sertraline treated animals: 10 mg/kg
Protocol: The solutions are made and stored according to instructions provided by the sponsor (storage conditions and expiration day of solution).
Body weight is measured starting at age of four weeks and two times per week on the same day (i.e., Monday and Thursday) until end of the study. For convenience this is done just prior to animals receiving doses for those days. Animals are monitored twice-a-day by laboratory personnel (8 am and 4 pm) for “survival.” It is most optimal to measure “true survival” that is when the mouse has no detectable heartbeat. Since IACUC restrictions prevent this then using a definable and quantifiable endpoint for “survival” need to be used (see section 2.7 humane end-points). […] For instance, body temperature changes can drop just before death but many R6/2 mice show spontaneous death without preceding body temperature changes. More easily measured is body weight loss. […] Again mice that die spontaneously may not show such acute body weight changes. For these alternative measures combining these “survival” data (body weight or temperature decrease) with “survival” of spontaneous death mice (age found dead in a cage) is suitable.

[6] = biological target: T1, Human recombinant monoamine oxidase MAO-A (Homo sapiens, UniProt P21397); experiment: MAO-A inhibition assay (kynuramine fluorescence); assay type: biochemical
T1 construct: purchased Sigma Aldrich
T1 sequence (P21397 1-527): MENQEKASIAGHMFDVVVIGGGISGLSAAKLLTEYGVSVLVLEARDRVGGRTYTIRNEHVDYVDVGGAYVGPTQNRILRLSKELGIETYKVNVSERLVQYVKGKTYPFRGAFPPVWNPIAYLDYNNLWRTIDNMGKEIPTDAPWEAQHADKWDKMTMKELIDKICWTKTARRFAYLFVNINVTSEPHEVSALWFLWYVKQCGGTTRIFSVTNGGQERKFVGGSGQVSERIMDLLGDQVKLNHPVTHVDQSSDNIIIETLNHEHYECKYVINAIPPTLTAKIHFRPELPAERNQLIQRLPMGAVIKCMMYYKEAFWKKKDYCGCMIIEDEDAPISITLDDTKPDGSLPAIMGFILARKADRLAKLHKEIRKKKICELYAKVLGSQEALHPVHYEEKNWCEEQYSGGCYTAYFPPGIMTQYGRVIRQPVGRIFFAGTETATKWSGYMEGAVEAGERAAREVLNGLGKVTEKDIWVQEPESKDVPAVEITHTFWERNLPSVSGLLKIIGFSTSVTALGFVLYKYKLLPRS
From the text: Human recombinant monoamine oxidase proteins MAO-A and MAO-B were purchased from Sigma Aldrich. MAOs catalyze the oxidative deamination of primary, secondary and tertiary amines. In order to monitor MAO enzymatic activities and/or their inhibition rate by inhibitor(s) of interest, a fluorescent-based (inhibitor)-screening assay was set up. 3-(2-Aminophenyl)-3-oxopropanamine (kynuramine dihydrobromide, Sigma Aldrich), a non fluorescent compound was chosen as a substrate. Kynuramine is a non-specific substrate for both MAOs activities. While undergoing oxidative deamination by MAO activities, kynuramine is converted into 4-hydroxyquinoline (4-HQ), a resulting fluorescent product.
The monoamine oxidase activity was estimated by measuring the conversion of kynuramine into 4-hydroxyquinoline. Assays were conducted in 96-well black plates with clear bottom (Corning) in a final volume of 100 μL. The assay buffer was 100 mM HEPES, pH 7.5. Each experiment was performed in triplicate within the same experiment. […] The conversion of kynuramine to 4-hydroxyquinoline, was monitored by fluorescence (excitation at 320 nm, emission at 360 nm) using a microplate reader (Infinite 200, Tecan). Arbitrary units were used to measure levels of fluorescence produced in the absence and/or in the presence of inhibitor. […] The Ki (TC50) of each inhibitor was determined at Vmax/2.

[7] = tested on: Drosophila melanogaster expressing HD-Q120; experiment: Eye (rhabdomere) degeneration in Huntington disease fly line B-8533; assay type: in vivo; conditions: 1 μM and 5 μM
From the text: The eye of the fruit fly, Drosophila melanogaster, provides an ideal model system for studying neuronal survival. Each eye consists of approximately 800 units called ommatidia arranged in a regular pattern and the photoreceptors that compose each ommatidium exist in an ordered trapezoidal array. The presence and organization of these cells can be readily assessed using a technique called optical neutralization of the cornea (Franceschini and Kirschfeld, 1971).
This technique is being used in a screen for compounds that can rescue the neurodegenerative phenotype of a Drosophila model of Huntingtons disease (HD), fly line B-8533 (Jackson et al., 1998). This line contains a P-element construct inserted on the second chromosome, P{w+ gmr.HD-Q120)}. The construct contains a w+ visible eye-color marker, which enables confirmation of the presence of the insertion. […]
The now three- to ten-day-old flies are added to the vials (six to ten females and three males in each), incubated at 25° for seven to ten days. […] F1 eclosion-start date is noted and males and females are counted. […] Ommatidia are scored for number of visible rhabdomeres (0 to 7). […] Significance can be determined by the Mann-Whitney U-test or one-tailed student's T-test. […]

## NC(=O)CNC1CC1c1ccc(OCc2ccccc2)cc1 (stereo not shown) [Compound Dual-1]
[1]; 100 μM, one, two and three days
  levels of dimethylated H3K4 (western blot): increases H3K4 methylation in cells in a time dependent manner; also recorded: increases levels of dimethylated H3K4 in cells in a time dependent manner
[1]; Dual-1 100 μM vs parnate 250 μM
  potency at increasing global dimethylated H3K4 levels as compared to tranylcypromine: ten-fold or more potent
[2]; 5 mg/kg ip
  other parameters of two-choice swim test: clear trend (NS)
[2]; 5 mg/kg ip once-a-day, age week 9, 5 mg/kg
  performance in two-choice swim test (latency to find the platform): significantly improved the performance; also recorded: improved response in the two-choice swim test
[3]
  body weight loss compared to transgenic animals treated with vehicle or sertraline: caused no significant weight loss; also recorded: did not have substantially different weight losses
[4]
  rescue of toxin induced deficit (catalepsy): rescue the toxin induced deficit in a manner similar to or better than control compound caffeine or no treatment
[5]; R6/2 mouse study
  longevity (overall survival): can increase the longevity
[5]; female R6/2 mice
  survival versus vehicle and sertraline treated animals: survived longer
[5]; male and female R6/2 mice
  survival versus vehicle and sertraline treated animals: survived longer

## CN1CCN(C(=O)CNC2CC2c2ccc(OCc3ccccc3)cc2)CC1 (stereo not shown) [Compound Selective-1]
[6]
  IC50: > 1000 nM
[7]; day 2
  rhabdomere degeneration as compared to vehicle treated flies: reduced rhadomere degeneration
[7]; day not stated
  rescue of eye degeneration phenotype as compared to vehicle treated fly: in a concentration dependent manner rescues the eye degeneration phenotype

## CN1CCN(C(=O)CNC2CC2c2ccc(C3CC3)cc2)CC1 (stereo not shown) [Selective-2]
[6]; read-out: MAO-A IC50
  IC50: > 1000 nM
